Data taken from patent US11396531B2, “Antimicrobial peptides comprising epsilon lysine residues” (priority 2016, dated 2022).
In brackets after ≈: the same amount, converted by molar mass. Like-named read-outs stand apart in the source and are kept apart here. No end group written: not given here.

Legend:
[1] = tested on: red blood cells; conditions: cited from earlier work
[2] = tested on: a number of micro-organisms; conditions: cited from earlier work
[3] = tested on: primary human dermal fibroblasts (HDFs); experiment: MTS cytotoxicity assay
Procedure: MTS ((3-(4,5-dimethylthiazol-2-yl)-5-(3-carboxymethoxyphenyl)-2-(4-sulfophenyl)-2H-tetrazolium)) assay and high content analysis (HCA) were performed to elucidate the effect of various polymers on metabolic activity and morphological parameters of cultured human dermal fibroblasts (hDF), respectively as described previously. The antineoplastic agent, nocodazole (5 μg/ml), served as the […] control whereas cells treated with PBS served as positive control. The average values from three independent triplicate experiments are reported. Cells were cultured in 96-well plates and scanned (16 randomly selected fields/well) using an automated microscope IN Cell Analyzer 2200 (GE Healthcare). The multi-parametric cytotoxicity bio-application module of the IN Cell Investigator software (GE Healthcare) was used in quantitative estimations and morphotypic analysis of acquired images, which were automatically converted into color-coded heatmaps using Spotrfire® software.
Human dermal fibroblast cells were seeded in 96-well plates (2×10^3 cells/well) and incubated for 24 h at 37° C. and 5% CO2. Cells were then treated with various concentrations of polymers or peptides (62.5 μg/ml-1 mg/ml. At the end of the treatment period (after 24 h), 20 or 50 μl of MTS tetrazolium solution was added into 96-well or 12-well plates and further incubated for 2 h at 37° C. Subsequently, the absorbance was measured at 490 nm using a microplate reader (Infinite M200 Pro, Tecan, Switzerland) and the relative cell viability was calculated. Each treatment was performed in two triplicates and reported.
The cytotoxicity of peptides and polymers were determined using CellTier 96® Aqueous One solution cell proliferation assay kit according to the manufacturer's instruction (Promega Corporation, Madison, Wis.). This assay evaluates mitochondrial function by measuring ability of viable cells to reduce MTS ((3-(4,5-dimethylthiazol-2-yl)-5-(3-carboxymethoxyphenyl)-2-(4-sulfophenyl)-2H-tetrazolium)) into a quantifiable […] formazan product. HDFs were seeded in 96-well plates (2×10^3 cells/well) and incubated for 24 h at 37° C. and 5% CO2. Cells were then treated with a concentrated stock solution of polymers (final concentration 62.5-2000 μg/ml in the well) or peptides (final concentration 4-1000 μg/ml in the well). After 24 h, 20 μl of MTS tetrazolium solution was added into 96-well well plates and further incubated for 2 h at 37° C. Subsequently, the absorbance was measured at 490 nm using a microplate reader (Infinite M200 Pro, Tecan, Switzerland) and the relative cell viability was calculated relative to untreated control (10 mM PBS, pH 7.0). Each treatment was performed in two triplicates and reported.

[4] = tested on: Vancomycin-resistant Enterococcus (VRE)
Procedure: (§1) MIC of cationic polymers and polypeptide were tested in accordance with the Clinical and Laboratory Standards Institute (CLSI) guidelines against a panel of antibiotic-susceptible/-resistant bacteria, yeasts and fungal strains. Bacterial and yeast strains were cultured on tryptic soy agar (TSA) and Sabaroud dextrose agar (SDA) plates (Neogen Corporation, MI, USA) overnight respectively. Inocula in Mueller-Hinton broth (MHB) for bacteria and SD broth for C. albicans (Beckton Dickinson, MD, USA) were prepared at 0.5 McFarland. The suspensions were then diluted to a final concentration of 10^5 CFU/ml in a 96-well microtitre plate (SPL Life Sciences Co., Ltd, Korea). […] The antimicrobial activities were compared with topical antiseptic agents, BAK and CHX. A similar protocol was used to determine the MIC of εPL against antibiotic-resistant pathogens. MIC of the polymers and polypeptides against Fusarium strains was determined in full strength RPMI-1640 buffer. Fungal spores were recovered from a 5-day old culture on a potato dextrose agar and diluted to a concentration of 10^5 spores/ml in 0.9% saline solution. A further 50-fold dilution was done in RPMI-1640 buffer and 100 μl of the inoculum was added to 96 well plates containing an equal volume of test peptides at 2-fold serial dilutions. 200 μl of inoculum without any additives and buffer alone served as positive and negative controls, respectively. The plate was then incubated at 30° C. for 48 h. The absorbance value was measured at 600 nm as before and the lowest concentration of the peptide which inhibited 90% growth was reported. All MIC determinations were performed in duplicates.
(§2) MICs of polymers/antibiotics were determined using the microdilution method in 96 well microtitre plates (SPL Life Sciences Co., Ltd, Korea), following the guidelines of Clinical and Laboratory Standards Institute (CLSI) document M100-S18. Briefly, polymers (1-512 μg/ml) or antibiotics were dissolved in appropriate media (Mueller Hinton broth, MHB for bacteria; Sabaroud's Dextrose (SD) broth for yeasts and RPMI buffer for Fusarium strains) and 100 μl of this was then mixed with an equal volume of microbial inoculum (OD600=˜0.08) in the same media and shaken in a closed incubator.

[5] = tested on: A. baumannii; experiment: microbe, parasite or virus in culture
Procedure: as §1, §2

[6] = tested on: Carbapenam-resistant Enterobacter strains (CRE); experiment: microbe, parasite or virus in culture
Procedure: as §1, §2

[7] = tested on: K. pneumoniae; experiment: microbe, parasite or virus in culture; format: cell-based, Klebsiella pneumoniae
Procedure: as §1, with “Korea). Polymers and polypeptides were added to the inoculum in 2-fold serial dilutions to give a range of concentrations from 2-1024 μg/ml.” for “Korea).”
as §2

[8] = tested on: E. coli; experiment: microbe, parasite or virus in culture; format: cell-based, Escherichia coli
Procedure: as §1, with “Korea). Polymers and polypeptides were added to the inoculum in 2-fold serial dilutions to give a range of concentrations from 2-1024 μg/ml.” for “Korea).”
as §2

[9] = tested on: T-cell lymphomas (HuT78, MJ, HH) and B-cell lymphomas (Ly-4 and Ly-18); experiment: Anticancer properties of hypercharged peptides (MTS); format: cell-based, human; conditions: 62.5-500 μg/ml
Procedure: The hyper-charged peptides were screened for their anticancer properties using cell lines derived from patients with various forms of cutaneous lymphomas, including T-cell lymphomas (HuT78, MJ, HH) and B-cell lymphomas (Ly-4 and Ly-18). The relative cytotoxicity of these peptides was also assessed in healthy primary peripheral blood lymphocyte (PBL) T-cells. Cytotoxicity was measured as the mitochondrial function by metabolic reduction of MTS.

[10] = tested on: P. aeruginosa; format: cell-based, Pseudomonas aeruginosa; conditions: P. aeruginosa (n = 22)
Procedure: as §1, with “Korea). Polymers and polypeptides were added to the inoculum in 2-fold serial dilutions to give a range of concentrations from 2-1024 μg/ml.” for “Korea).”
MICs of polymers/antibiotics were determined using the microdilution method in 96 well microtitre plates (SPL Life Sciences Co., Ltd, Korea), following the guidelines of Clinical and Laboratory Standards Institute (CLSI) document M100-S18. […]

[11] = tested on: C. albicans; conditions: C. albicans (n = 5)
Procedure: as §1, §2

[12] = tested on: E. cloacae complex; experiment: microbe, parasite or virus in culture
Procedure: as §1, §2

[13] = tested on: S. aureus; experiment: microbe, parasite or virus in culture; format: cell-based, Staphylococcus aureus
Procedure: as §1, with “Korea). Polymers and polypeptides were added to the inoculum in 2-fold serial dilutions to give a range of concentrations from 2-1024 μg/ml.” for “Korea).”
as §2

[14] = tested on: MRSA; format: cell-based, Staphylococcus aureus; conditions: MRSA (n = 9)
Procedure: as §1, with “Korea). Polymers and polypeptides were added to the inoculum in 2-fold serial dilutions to give a range of concentrations from 2-1024 μg/ml.” for “Korea).”
as §2

[15] = at 5 × 10^5 CFU/mL, reference 7
[16] = at 5 × 10^5 CFU/mL, reference 5

CGIGAVLKVLTTGLPALISWIKRKRQQC [Modified peptide: CGIGAVLKVLTTGLPALISWIKRKRQQC (cyclised)] (also: cyclised, mode not given here)
Haemolytic activity ([1]; at 10 μM, reference 7): ~50% at 10 μM | MIC (range against a number of micro-organisms) [2, 15]: 0.8 - 10 μM at

GIGAVLKVLTTGLCALISWIKRKRQQ (ends and bridges not checked)
Haemolytic activity ([1]; at 2.5 μM, reference 8): 50% at 2.5 μM

CC[C@H](C)[C@H](NC(=O)[C@H](CO)NC(=O)[C@H](CCCCN)NC(=O)[C@H](CC(C)C)NC(=O)[C@H](CCCCN)NC(=O)[C@@H](N)CC(C)C)C(=O)N[C@H](C(=O)N[C@@H](CO)C(=O)N[C@@H](Cc1c[nH]c2ccccc12)C(=O)N[C@@H](C)C(=O)N[C@@H](CCCCN)C(=O)N[C@@H](CCCCN)C(=O)N[C@H](C(=O)N[C@@H](CC(C)C)C(N)=O)C(C)C)C(C)C [Mastoparan B, LKLKSIVSWAKKVL]
Peptide concentration required to impart cytotoxic effect ([3]; MTS assay, primary human fibroblasts): exceeded 62.5 μg/ml | Cytotoxicity for HDFs ([3]; Table 7): 125 µg/mL | MIC90 ([4]; VRE (n = 21), 90% of strains susceptible, Table 7): (MIC90 = 4)^1 μg/ml | MIC90 ([5]; A. baumanii (n = 10), 90% of strains susceptible, Table 7): (MIC90 = 2) μg/ml | MIC50 ([6]; CRE (n = 19), 50% of strains susceptible, Table 7): (MIC50 = 4) μg/ml

GIGAVLKVLTTGLPALISWIKRKRQQ-NH2 [Modified peptide: GIGAVLKVLTTGLPALISWIKRKRQQ-NH2]
Haemolytic activity ([1]; at 50 μM, reference 5): <25% at 50 μM | MIC (range against a number of micro-organisms) [2, 16]: 0.8 - 12 μM at

GIGAVLKVLTTGLPALISWIKRKRQQ [listing 1 of 2 here]
Haemolytic activity ([1]; reference 9, result in words): Loss of peptide | MIC ([2]; reference 9, result in words): Loss of peptide

GIGAVLKVLTTGLPALISWIKRKRQQ-NH2 [Unmodified parent peptide: GIGAVLKVLTTGLPALISWIKRKRQQ-NH2]
Haemolytic activity ([1]; at <10 μM, reference 5): 100% at <10 μM | MIC (range against a number of micro-organisms) [2, 16]: 0.3 - 20 μM at

N=C(N)NCCC[C@@H](NC(=O)[C@@H](N)CCCCNC(=O)[C@@H](CCCNC(=N)N)NC(=O)[C@@H](N)CCCCNC(=O)[C@@H](CCCNC(=N)N)NC(=O)[C@@H](N)CCCCNC(=O)[C@@H](CCCNC(=N)N)NC(=O)[C@@H](N)CCCCNC(=O)[C@@H](CCCNC(=N)N)NC(=O)[C@@H](N)CCCCNC(=O)[C@@H](CCCNC(=N)N)NC(=O)[C@@H](N)CCCCN)C(=O)O [HC4, KrKrKrKrKrKr]
MIC ([7]; K. pneumonia (n = 4)): 16 to 128 µg/mL | MIC ([8]; E. coli (n = 3)): 16 µg/mL (≈ 9.28 µM) | cell killing in lymphoma cell lines [9]: varying degrees of cell killing | MIC [10]: 16 to 64 µg/mL | MIC [11]: 16 to 32 µg/mL | MIC ([4]; VRE (n = 3)): 16 µg/mL (≈ 9.28 µM) | MIC ([12]; E. clocae complex (n = 4)): 64 to 128 µg/mL | MIC ([5]; A. baumanii (n = 3)): 16 to 32 µg/mL | MIC ([6]; CRE strains (n = 4)): 64 to 128 µg/mL | MIC ([13]; S. aureus (n = 6)): 32 µg/mL (≈ 18.6 µM) | MIC [14]: 16 to 64 µg/mL

GIGAVKKVLTTGKPALISWKKRKRQQ (not fully specified (residues 6, 13, 20); ends and bridges not checked; also: peptoid residue at 6, 13, 20 (identity not given here))
Haemolytic activity ([1]; at 100 μM, reference 6): <10% at 100 μM | MIC (range against a number of micro-organisms) ([2]; at 1 × 10^6 CFU/mL, reference 6): 2 - 8 μM at

NC[C@H]1O[C@H](O[C@H]2[C@H](O)[C@@H](O[C@H]3O[C@H](CO)[C@@H](O)[C@H](N)[C@H]3O)[C@H](N)C[C@@H]2N)[C@H](N)C[C@@H]1O [Tobramycin]
MIC ([7]; Klebsiella pneumoniae, K. pneumoniae (n = 8), range over strains, read-out: MIC): 195 to 100000 µg/mL (≈ 417 to 214000 µM) | MIC ([8]; Escherichia coli, E. coli (n = 8), range over strains, read-out: MIC): 195 to 100000 µg/mL (≈ 417 to 214000 µM) | MIC ([12]; Enterobacter cloacae): 1560 to 100000 µg/mL (≈ 3340 to 214000 µM) | MIC ([5]; Acinetobacter baumannii): 800 to 50000 µg/mL (≈ 1710 to 107000 µM) | MIC ([6]; Enterobacter): 800 to 50000 µg/mL (≈ 1710 to 107000 µM) | MIC ([13]; Staphylococcus aureus, S. aureus (n = 9), read-out: MIC): 500 to 1000 µg/mL (≈ 1070 to 2140 µM)

GIGAVLKVLTTGLPALISWIKRKRQQ [listing 2 of 2 here]
Haemolytic activity ([1]; at 2 μM, reference 4): 100% at 2 μM | MIC (range against a number of micro-organisms) ([2]; at 1 - 4 × 10^5 CFU/mL, reference 4): 0.1 - 2 μM at 1 -

CGIGAVLKVLTTGLPALISWIKRKRQQC [Unmodified parent peptide: CGIGAVLKVLTTGLPALISWIKRKRQQC (lin]
Haemolytic activity ([1]; at 10 μM, reference 7): Complete | MIC (range against a number of micro-organisms) [2, 15]: 2 - 32 μM at
